Paper PMC6458159, “Mechanisms of redundancy and specificity of the Aspergillus fumigatus Crh transglycosylases” (Nature Communications, 2019)

Biological target: T1, AfCrh5 (Aspergillus fumigatus, UniProt Q8J0P4)
T1 construct: gene crh5; GST cleaved off by PreScission, N-terminal His6 kept; E. coli BL21(DE3) pLysS
T1 sequence (Q8J0P4 22-275): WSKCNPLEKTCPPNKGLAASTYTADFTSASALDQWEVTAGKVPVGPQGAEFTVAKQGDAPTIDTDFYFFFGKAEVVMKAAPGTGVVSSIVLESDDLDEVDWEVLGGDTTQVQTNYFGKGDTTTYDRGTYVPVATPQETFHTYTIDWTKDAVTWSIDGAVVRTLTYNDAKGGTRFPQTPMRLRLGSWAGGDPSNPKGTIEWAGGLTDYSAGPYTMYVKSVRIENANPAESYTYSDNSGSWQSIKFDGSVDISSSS
Experiment: fluorescent transglycosylation filter-paper assay
Format: biochemical
Conditions: acceptor; donor carboxymethyl-chitin; 50 mM citrate pH 4.9, 37 °C; labelled compound
Source text: fluorescent transglycosylation filter-paper assay on AfCrh5

Substance | Km
SR-labelled chitopentaose [CH5-SR] | 3.5 ± 0.4 µM
SR-labelled laminaripentaose [L5-SR] | 12 ± 3 µM
